Test [1] deals with Nociceptin receptor (Mus musculus) (UniProt P35377). Put plainly: (§1) Agonist activity at NOP receptor in Swiss mouse vas deferens assessed as effect on electrically stimulated contractions. It is filed as functional, tissue-based.
A further test has as its target Nociceptin receptor (Mus musculus, UniProt P35377). Described as §1. It is filed as functional, tissue-based.

“And” between values parts separate entries of the source, which are not always exact repeats. Identical values can stand only once.

Nociceptin receptor, sequence (P35377 whole entry): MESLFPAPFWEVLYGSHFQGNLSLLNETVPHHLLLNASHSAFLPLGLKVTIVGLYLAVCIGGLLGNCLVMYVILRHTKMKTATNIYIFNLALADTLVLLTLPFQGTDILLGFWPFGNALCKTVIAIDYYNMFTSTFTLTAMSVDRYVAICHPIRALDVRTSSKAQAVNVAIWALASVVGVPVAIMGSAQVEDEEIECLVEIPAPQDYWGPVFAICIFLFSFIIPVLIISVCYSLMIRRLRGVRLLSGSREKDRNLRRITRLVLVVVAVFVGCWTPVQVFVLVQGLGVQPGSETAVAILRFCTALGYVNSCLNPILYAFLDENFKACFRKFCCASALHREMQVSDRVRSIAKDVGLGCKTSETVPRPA
Nociceptin receptor (Mus musculus), sequence (P35377 whole entry): as above

What is called Emax is the greatest response seen or fitted, relative to the assay's reference. In general, EC50 refers to the midpoint of the concentration-response curve. As to `CC(C)C[C@H](NC(=O)[C@H](CCCCN)NC(=O)[C@H](CCCNC(=N)N)NC(=O)C(C)(CC(C)C)NC(=O)[C@H](CO)NC(=O)[C@H](CCCCN)NC(=O)[C@H](CCCNC(=N)N)NC(=O)[C@H](C)NC(=O)CNC(=O)[C@@H](NC(=O)[C@H](Cc1ccccc1)NC(=O)CNC(=O)CNC(=O)[C@@H](N)Cc1ccccc1)[C@@H](C)O)C(=O)N[C@@H](C)C(=O)N[C@@H](CC(N)=O)C(=O)N[C@@H](CCC(N)=O)C(N)=O` (stereo partly drawn), in test [1], the Emax came out at 91%. The EC50 on Nociceptin receptor is 0.0135 µM.

With `CC(C)C[C@H](NC(=O)[C@H](CCCCN)NC(=O)[C@H](CCCNC(=N)N)NC(=O)C1(NC(=O)[C@H](CO)NC(=O)[C@H](CCCCN)NC(=O)[C@H](CCCNC(=N)N)NC(=O)[C@H](C)NC(=O)CNC(=O)[C@@H](NC(=O)[C@H](Cc2ccccc2)NC(=O)CNC(=O)CNC(=O)[C@@H](N)Cc2ccccc2)[C@@H](C)O)CCCCC1)C(=O)N[C@@H](C)C(=O)N[C@@H](CC(N)=O)C(=O)N[C@@H](CCC(N)=O)C(N)=O`, the Emax in test [1] is 89%. Moreover, the EC50 on Nociceptin receptor was 0.0162 µM.

Regarding `CC(C)C[C@H](NC(=O)[C@H](CCCCN)NC(=O)[C@H](CCCNC(=N)N)NC(=O)C1(NC(=O)[C@H](CO)NC(=O)[C@H](CCCCN)NC(=O)[C@H](CCCNC(=N)N)NC(=O)[C@H](C)NC(=O)CNC(=O)[C@@H](NC(=O)[C@H](Cc2ccccc2)NC(=O)CNC(=O)CNC(=O)[C@@H](N)Cc2ccccc2)[C@@H](C)O)CC1)C(=O)N[C@@H](C)C(=O)N[C@@H](CC(N)=O)C(=O)N[C@@H](CCC(N)=O)C(N)=O`, in test [1], the Emax was determined as 91%. Further, the EC50 on Nociceptin receptor is 0.0166 µM. Taken in the same sequence, the figures for `CCCC(CCC)(NC(=O)CNC(=O)[C@@H](NC(=O)[C@H](Cc1ccccc1)NC(=O)CNC(=O)CNC(=O)[C@@H](N)Cc1ccccc1)[C@@H](C)O)C(=O)N[C@@H](CCCNC(=N)N)C(=O)N[C@@H](CCCCN)C(=O)N[C@@H](CO)C(=O)N[C@@H](C)C(=O)N[C@@H](CCCNC(=N)N)C(=O)N[C@@H](CCCCN)C(=O)N[C@@H](CC(C)C)C(=O)N[C@@H](C)C(=O)N[C@@H](CC(N)=O)C(=O)N[C@@H](CCC(N)=O)C(N)=O` were 91% and 0.0126 µM. Taken in the same sequence, the figures for `CCC(CC)(NC(=O)[C@H](CO)NC(=O)[C@H](CCCCN)NC(=O)[C@H](CCCNC(=N)N)NC(=O)[C@H](C)NC(=O)CNC(=O)[C@@H](NC(=O)[C@H](Cc1ccccc1)NC(=O)CNC(=O)CNC(=O)[C@@H](N)Cc1ccccc1)[C@@H](C)O)C(=O)N[C@@H](CCCNC(=N)N)C(=O)N[C@@H](CCCCN)C(=O)N[C@@H](CC(C)C)C(=O)N[C@@H](C)C(=O)N[C@@H](CC(N)=O)C(=O)N[C@@H](CCC(N)=O)C(N)=O` were 87% and 0.0178 µM.

For `CC(C)C[C@H](NC(=O)[C@H](CCCCN)NC(=O)[C@H](CCCNC(=N)N)NC(=O)[C@H](C)NC(=O)[C@H](CO)NC(=O)[C@H](CCCCN)NC(=O)[C@H](CCCNC(=N)N)NC(=O)C(C)(CC(C)C)NC(=O)CNC(=O)[C@@H](NC(=O)[C@H](Cc1ccccc1)NC(=O)CNC(=O)CNC(=O)[C@@H](N)Cc1ccccc1)[C@H](C)O)C(=O)N[C@@H](C)C(=O)N[C@@H](CC(N)=O)C(=O)N[C@@H](CCC(N)=O)C(N)=O` (stereo partly drawn), the Emax in test [1] is 84% and 95%. Turning to `CC(C)C[C@H](NC(=O)[C@H](CCCCN)NC(=O)[C@H](CCCNC(=N)N)NC(=O)[C@H](C)NC(=O)[C@H](CO)NC(=O)[C@H](CCCCN)NC(=O)[C@H](CCCNC(=N)N)NC(=O)C(C)(C)NC(=O)CNC(=O)[C@@H](NC(=O)[C@H](Cc1ccccc1)NC(=O)CNC(=O)CNC(=O)[C@@H](N)Cc1ccccc1)[C@@H](C)O)C(=O)N[C@@H](C)C(=O)N[C@@H](CC(N)=O)C(=O)N[C@@H](CCC(N)=O)C(N)=O`, in test [1], the Emax came out at 96%. Also, the half-maximal effective concentration (EC50) on Nociceptin receptor is 0.00447 µM. `CC(C)C[C@H](NC(=O)[C@H](CCCCN)NC(=O)[C@H](CCCNC(=N)N)NC(=O)C(C)(NC(=O)[C@H](CO)NC(=O)[C@H](CCCCN)NC(=O)[C@H](CCCNC(=N)N)NC(=O)[C@H](C)NC(=O)CNC(=O)[C@@H](NC(=O)[C@H](Cc1ccccc1)NC(=O)CNC(=O)CNC(=O)[C@@H](N)Cc1ccccc1)[C@@H](C)O)C(C)C)C(=O)N[C@@H](C)C(=O)N[C@@H](CC(N)=O)C(=O)N[C@@H](CCC(N)=O)C(N)=O` (stereo partly drawn): the Emax in test [1] is 93% and 86%. Still for that read-out and setting: the figure for `CC(C)C[C@H](NC(=O)[C@H](CCCCN)NC(=O)[C@H](CCCNC(=N)N)NC(=O)[C@H](C)NC(=O)[C@H](CO)NC(=O)[C@H](CCCCN)NC(=O)[C@H](CCCNC(=N)N)NC(=O)C(C)(NC(=O)CNC(=O)[C@@H](NC(=O)[C@H](Cc1ccccc1)NC(=O)CNC(=O)CNC(=O)[C@@H](N)Cc1ccccc1)[C@H](C)O)C(C)C)C(=O)N[C@@H](C)C(=O)N[C@@H](CC(N)=O)C(=O)N[C@@H](CCC(N)=O)C(N)=O` (stereo partly drawn) is 88% and 95%.

Take `CC(C)C[C@H](NC(=O)[C@H](CCCCN)NC(=O)[C@H](CCCNC(=N)N)NC(=O)[C@H](C)NC(=O)[C@H](CO)NC(=O)[C@H](CCCCN)NC(=O)[C@H](CCCNC(=N)N)NC(=O)C1(NC(=O)CNC(=O)[C@@H](NC(=O)[C@H](Cc2ccccc2)NC(=O)CNC(=O)CNC(=O)[C@@H](N)Cc2ccccc2)[C@@H](C)O)CCCCC1)C(=O)N[C@@H](C)C(=O)N[C@@H](CC(N)=O)C(=O)N[C@@H](CCC(N)=O)C(N)=O`: the Emax in test [1] stood at 87%. In addition, at Nociceptin receptor, the EC50 is 0.0631 µM.

`CC(C)C[C@H](NC(=O)[C@H](CCCCN)NC(=O)[C@H](CCCNC(=N)N)NC(=O)[C@H](C)NC(=O)[C@H](CO)NC(=O)[C@H](CCCCN)NC(=O)[C@H](CCCNC(=N)N)NC(=O)C1(NC(=O)CNC(=O)[C@@H](NC(=O)[C@H](Cc2ccccc2)NC(=O)CNC(=O)CNC(=O)[C@@H](N)Cc2ccccc2)[C@@H](C)O)CC1)C(=O)N[C@@H](C)C(=O)N[C@@H](CC(N)=O)C(=O)N[C@@H](CCC(N)=O)C(N)=O`: the Emax in test [1] came to 7.08%. At Nociceptin receptor, the concentration giving a half-maximal response (EC50) is 0.0832 µM. Turning to `CC(C)C[C@H](NC(=O)[C@H](CCCCN)NC(=O)[C@H](CCCNC(=N)N)NC(=O)[C@H](C)NC(=O)[C@H](CO)NC(=O)[C@H](CCCCN)NC(=O)[C@H](CCCNC(=N)N)NC(=O)C1(NC(=O)CNC(=O)[C@@H](NC(=O)[C@H](Cc2ccccc2)NC(=O)CNC(=O)CNC(=O)[C@@H](N)Cc2ccccc2)[C@@H](C)O)CCCC1)C(=O)N[C@@H](C)C(=O)N[C@@H](CC(N)=O)C(=O)N[C@@H](CCC(N)=O)C(N)=O`, the Emax in test [1] stood at 98%. Besides, on Nociceptin receptor, the concentration for a half-maximal effect (EC50) is 0.0251 µM. Take `CCC(C)(NC(=O)[C@H](CO)NC(=O)[C@H](CCCCN)NC(=O)[C@H](CCCNC(=N)N)NC(=O)[C@H](C)NC(=O)CNC(=O)[C@@H](NC(=O)[C@H](Cc1ccccc1)NC(=O)CNC(=O)CNC(=O)[C@@H](N)Cc1ccccc1)[C@@H](C)O)C(=O)N[C@@H](CCCNC(=N)N)C(=O)N[C@@H](CCCCN)C(=O)N[C@@H](CC(C)C)C(=O)N[C@@H](C)C(=O)N[C@@H](CC(N)=O)C(=O)N[C@@H](CCC(N)=O)C(N)=O` (stereo partly drawn): the Emax in test [1] was 90%. Same read-out and setting: as for `CC[C@](C)(NC(=O)CNC(=O)[C@@H](NC(=O)[C@H](Cc1ccccc1)NC(=O)CNC(=O)CNC(=O)[C@@H](N)Cc1ccccc1)[C@@H](C)O)C(=O)N[C@@H](CCCNC(=N)N)C(=O)N[C@@H](CCCCN)C(=O)N[C@@H](CO)C(=O)N[C@@H](C)C(=O)N[C@@H](CCCNC(=N)N)C(=O)N[C@@H](CCCCN)C(=O)N[C@@H](CC(C)C)C(=O)N[C@@H](C)C(=O)N[C@@H](CC(N)=O)C(=O)N[C@@H](CCC(N)=O)C(N)=O`, the figure is 91% and 88%.

(Values after ChEMBL document CHEMBL1148695, “Synthesis and biological activity of nociceptin/orphanin FQ analogues substituted in position 7 or 11 with Calpha,alpha-dialkylated amino acids” (Bioorg Med Chem, 2007).)
